Assay results taken from publication PMC10214526, “Semisynthetic LC3 Probes for Autophagy Pathways Reveal a Noncanonical LC3 Interacting Region Motif Crucial for the Enzymatic Activity of Human ATG3” (ACS Central Science, 2023).
Where no end group is shown, it is not given here.

Legend:
[1] = system: ATG3; test: Reaction (cross-linking) of Ubl activity-based probes with recombinant ATG3 and variants; assay type: biochemical, human; conditions: for Reaction with ATG3 C0: ATG3 C0 (no cysteines) 15 μM; for Reaction with ATG3 C1: ATG3 C1 (only active-site C264) 15 μM; for Reaction with ATG3 ΔLIR: ATG3 C1 ΔLIR (Δ95–111) 15 μM
Protocol: Figure 1 Modification of ATG3 with GABARAP ABPs depends on LIR^ATG3. a. Characterization of GABARAP activity-based probes, 1 and 2, obtained by hydrazide-acylation. Deconvoluted mass-spectrum (ESI) of GABARAP(ΔG116)–NHNH α-chloroacetyl 1. Expected mass 13707 Da. Deconvoluted mass-spectrum (ESI) of GABARAP(ΔG116)–NHNH methyl-fumarate 2. Expected mass 13743 Da. b. […] The reaction was allowed to proceed for 1 h and was analyzed by SDS-PAGE and Coomassie Blue staining. c. ColabFold-predicted structure of the protein-complex of ATG3 and GABARAP. Side-chain atoms are shown for the predicted LIR motif in ATG3 (90–112). d. Reaction of 2 (15 μM) with ATG3 variants C1, C0, and ΔLIR (15 μM). ATG3 C1 contains only active-site cysteine C264. ATG3 C0 contains no cysteines. ATG3 ΔLIR lacks amino acids 95–111. Reaction was allowed to proceed for 1 h and was analyzed by SDS-PAGE and Coomassie Blue staining. Full-gel images for b and d are available in the Supplementary Information.
We were intrigued by the cross-linking efficiency of 2 with ATG3 and sought to investigate the origin of this efficiency by generating a C1 variant of ATG3 that only contains the catalytic cysteine 264 and a corresponding C0 variant containing no cysteines. […] In general, the affinity of E2s for their cognate Ubls are quite low, as the thioester transfer from the E1 to the E2 enzyme is facilitated by additional interactions from the UFD domain of the E1 enzyme.[23] […]
Upon completion the solution was dialyzed against 25 mM
HEPES, 200 mM NaCl pH 7.2 at 4 °C. Cleaved intein was removed using gravity Ni-NTA purification.
The flow-through was collected and combined with resin washes. The combined fractions were dialyzed and further purified using ion exchange.
3.3. Generation of GABARAP and LC3A hydrazides from SUMO-GABARAP/LC3A-Mxe GyrA-
SUMO-GABARAP/LC3A-Mxe GyrA-His6 fusion after Ni-NTA purification was dialyzed against intein cleavage buffer (25 mM HEPES, 500 mM NaCl, 1 mM EDTA pH 7.2 at 4 °C). After dialysis hydrazine monohydrate (75 mM) and MESNa (10 mM) was added and the pH adjusted to 7.8. The solution was allowed to stand at room temperature and monitored using LC-MS analysis. Upon completion the solution was dialyzed against 25 mM HEPES, 500 mM NaCl pH 7.2 at 4 °C. SENP1 (1 wt%) was added to cleave the SUMO-tag. The cleaved intein was removed using gravity Ni-NTA purification. […]
dialyzed and further purified using cation exchange using a buffer 25 mM Tris pH 8.0 and a gradient of […] in the same buffer over 25 column volumes. The product fractions were pooled, concentrated, and stored at –80 °C until further use.
3.4. Synthesis of symmetrical anhydrides
The carboxylic acid was dissolved in CH2Cl2 (300 mM) and dicyclohexylcarbodiimide (0.5 eqiv) was added in one portion. The reaction was stirred under N2 for 18 h. The suspension was filtered and concentrated to ~10% of the initial volume. The solution was placed at 4 °C for 1 h and filtered again.
The filtrate was concentrated to obtain the symmetrical anhydride which was used without further purification. Anhydrides can be stored at –20 °C for weeks.
3.5. Reaction of modified Ubl probes with E2s
Ubl probes (15 μM) were mixed with E2s (15 μM) in PBS. The mixture was incubated at 37 °C in a water bath for 0.5-3 h. The reaction was quenched by addition of 2x Laemmli buffer and boiled at 95 °C for 5 min. Samples were resolved by SDS-PAGE (8-16%, Bio-Rad) and visualized by […]
Coomassie staining. […]

[2] = system: ATG3; test: as above; assay type: biochemical, human; conditions: probe 15 μM; ATG3 wt, C264A and ΔLIR 5 μM; SDS-PAGE (Figure S9)
[3] = molecular target: T1, LC3A (Homo sapiens, UniProt Q9H492); test: Fluorescence polarization binding of fluorescein-modified LIR^ATG3 peptides to LC3A
T1 construct: His6-SUMO (pOPINS) (N, cleaved yes); made in house; host or cells: E. coli Rosetta-CodonPlus (DE3)-RIL
From the text: (§1) Figure 2 Characterization of LIR^ATG3. a. Reaction scheme outlining competition assay used for b, c, and d. b. Coomassie Blue-stained SDS-PAGE analysis for reaction of 2 with ATG3 C1 in the presence of varying concentrations of linear LIR^ATG3 peptide 5 as outlined in a. c. Coomassie Blue-stained SDS-PAGE analysis for reaction of 2 with ATG3 C1 in the presence of varying concentrations of cyclized LIR^ATG3 peptide 6 as outlined in a. d. Quantification of competition assays shown in b and c. The amount of GABARAP–ATG3 C1 complex was quantified by gel-densitometry and normalized to the reaction without peptide for each gel. […] Data are presented as average values ± s.d. e. Fluorescence polarization binding-data of fluorescein-modified LIR^ATG3 peptide binding to GABARAP. Either linear, cyclized, or truncated (103–111) LIR^ATG3 peptide was used. […] Fluorescence polarization data of fluorescein-modified LIR^ATG3 peptide binding to LC3A. […]
(§2) 3.13.Fluorescence polarization measurement
(§3) Fluorescent peptides were dissolved in DMSO and PBS. The concentration was determined by UV - absorption and extinction coefficient at 280 nm. […] Protein concentration was determined using UV-absorption and extinction coefficient at 280 nm. […]
(§4) 0.047 μM. […] Fluorescence polarization and intensity was measured on a Victor Nivo Plate Reader (Perkin Elmer). […]

[4] = molecular target: T2, GABARAP (Homo sapiens, UniProt O95166); test: Fluorescence polarization binding of fluorescein-modified LIR^ATG3 peptides to GABARAP; conditions: response letter; truncated LIR peptide (103–111)
T2 construct: His6-SUMO (pOPINS) (N, cleaved yes); made in house; host or cells: E. coli Rosetta-CodonPlus (DE3)-RIL
From the text: as §1, §2, §3, §4

T2 sequence (O95166 whole entry, the tested form may be a part): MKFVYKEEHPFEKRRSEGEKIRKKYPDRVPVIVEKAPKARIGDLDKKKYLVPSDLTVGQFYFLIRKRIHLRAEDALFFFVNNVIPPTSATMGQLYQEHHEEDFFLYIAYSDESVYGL

“GABARAP(ΔG116)–NHNH α-chloroacetyl [compound 1]” was tested, and the “LIR dependence of cross-linking with ATG3” value ([1]; ATG3 with or without LIR) was “strictly dependent on LIR^ATG3”, the “Cross-linking with ATG3 C1 vs C0” value ([1]; probe 1 15 μM, ATG3 C1 or C0 15 μM, 1 h (Figure S2)) was “Cross-linking was only observed for ATG3 C1” and the “LIR dependence of ATG3 wild-type modification” value [2] was “dependent on LIRATG3”.

“LC3A(ΔG120)–NHNH methyl fumarate [compound 4]” was tested, and the “Reaction with ATG3 C0” value ([1]; probe 15 μM, SDS-PAGE) was “no reaction”, the “Reaction with ATG3 C1” value ([1]; probe 15 μM, SDS-PAGE) was “efficient reaction” and the “Reaction with ATG3 ΔLIR” value ([1]; probe 15 μM, SDS-PAGE) was “no reaction”.

For “LC3A(ΔG120)–NHNH α-chloroacetyl [compound 3]”, the “Reaction with ATG3 C0” value ([1]; probe 15 μM, SDS-PAGE) was “no reaction”, the “Reaction with ATG3 C1” value ([1]; probe 15 μM, SDS-PAGE) was “efficient reaction” and the “Reaction with ATG3 ΔLIR” value ([1]; probe 15 μM, SDS-PAGE) was “no reaction”.

“Ub(ΔGG)–NHNH methyl fumarate [Ub(ΔGG) methyl fumarate probe, reference compound]” was tested, and the “Reaction with ATG3 wt” value ([1]; probe 15 μM, ATG3 15 μM, 1 h, SDS-PAGE, Coomassie Blue) was “did not react”.

With “truncated LIR^ATG3: fluorescein-modified truncated (103–111) LIR^ATG3 peptide, amino acids G103-Y111 including the core LIR motif (GDGGWVDTY; also: fluorescein, position not given here)” the “fold weaker binding of truncated peptide than linear peptide” value ([3]; GABARAP or LC3A not stated, truncated (103–111) vs linear) was 6 fold, the “fold weaker affinity of truncated peptide, LC3A” value ([3]; response letter, truncated LIR peptide lacking amino acids 104-95) was greater than 8 fold and the “fold weaker affinity of truncated peptide, GABARAP” value [4] was greater than 8 fold.
